Earlier results in patent publication US20070191933A1, “Reduction of restenosis” (priority 2005, published 2007).

Test system: circulating T-cells
Details: FIG. 1

alemtuzumab [Campath]
time to full recovery of T-cells (after a single dose): ≥ 3 months
killing of circulating T-cells (single dose): kill all circulating T-cells
